# Data as given in ChEMBL document CHEMBL3734705, “Synthesis and in vitro cytotoxicity of novel C-12 substituted-14-deoxy-andrographolide derivatives as potent anti-cancer agents” (2015).
# What was measured:
# [1] = Cytotoxicity against human RPMI8226 cells assessed as growth level at 10 uM after 48 hrs by SRB assay; assay type: functional, RPMI-8226
# A549 [2] = test: Cytotoxicity against human A549 cells assessed as growth level at 10 uM after 48 hrs by SRB assay; assay type: functional
# [3] = Cytotoxicity against human HOP92 cells assessed as growth level at 10 uM after 48 hrs by SRB assay; assay type: functional, HOP-92
# NCI-H226 = test: Cytotoxicity against human NCI-H226 cells assessed as growth level at 10 uM after 48 hrs by SRB assay; assay type: functional
# NCI-H522 = test: Cytotoxicity against human NCI-H522 cells assessed as growth level at 10 uM after 48 hrs by SRB assay; assay type: functional
# [4] = Cytotoxicity against human COLO205 cells assessed as growth level at 10 uM after 48 hrs by SRB assay; assay type: functional, COLO 205
# [5] = Cytotoxicity against human HCT15 cells assessed as growth level at 10 uM after 48 hrs by SRB assay; assay type: functional, HCT-15
# HT-29 = test: Cytotoxicity against human HT-29 cells assessed as growth level at 10 uM after 48 hrs by SRB assay; assay type: functional
# [6] = Cytotoxicity against human SF268 cells assessed as growth level at 10 uM after 48 hrs by SRB assay; assay type: functional, SF-268
# [7] = Cytotoxicity against human SF539 cells assessed as growth level at 10 uM after 48 hrs by SRB assay; assay type: functional, SF-539
# U-251 [8] = test: Cytotoxicity against human U251 cells assessed as growth level at 10 uM after 48 hrs by SRB assay; assay type: functional
# M14 [9] = test: Cytotoxicity against human M14 cells assessed as growth level at 10 uM after 48 hrs by SRB assay; assay type: functional
# MDA-MB-435 [10] = test: Cytotoxicity against human MDA-MB-435 cells assessed as growth level at 10 uM after 48 hrs by SRB assay; assay type: functional
# SK-MEL-5 [11] = test: Cytotoxicity against human SK-MEL-5 cells assessed as growth level at 10 uM after 48 hrs by SRB assay; assay type: functional
# [12] = Cytotoxicity against human OVCAR4 cells assessed as growth level at 10 uM after 48 hrs by SRB assay; assay type: functional, OVCAR-4
# [13] = Cytotoxicity against human OVCAR8 cells assessed as growth level at 10 uM after 48 hrs by SRB assay; assay type: functional, OVCAR-8
# [14] = Cytotoxicity against human NCI-ADR-RES cells assessed as growth level at 10 uM after 48 hrs by SRB assay; assay type: functional
# 786-0 = test: Cytotoxicity against human 786-0 cells assessed as growth level at 10 uM after 48 hrs by SRB assay; assay type: functional
# [15] = Cytotoxicity against human RXF393 cells assessed as growth level at 10 uM after 48 hrs by SRB assay; assay type: functional, RXF 393
# [16] = Cytotoxicity against human TK10 cells assessed as growth level at 10 uM after 48 hrs by SRB assay; assay type: functional, TK-10
# [17] = Cytotoxicity against human DU145 cells assessed as growth level at 10 uM after 48 hrs by SRB assay; assay type: functional, DU-145
# MDA-MB-231 [18] = test: Cytotoxicity against human MDA-MB-231 cells assessed as growth level at 10 uM after 48 hrs by SRB assay; assay type: functional
# [19] = Cytotoxicity against human BT549 cells assessed as growth level at 10 uM after 48 hrs by SRB assay; assay type: functional, BT-549
# CCRF-CEM [20] = test: Cytotoxicity against human CCRF-CEM cells assessed as growth inhibition at 10 uM after 48 hrs by SRB assay; assay type: functional; conditions: read-out: GI
# K562 = test: Cytotoxicity against human K562 cells assessed as growth inhibition at 10 uM after 48 hrs by SRB assay; assay type: functional; conditions: K562, 48 h, read-out: GI
# [21] = Cytotoxicity against human RPMI8226 cells assessed as growth inhibition at 10 uM after 48 hrs by SRB assay; assay type: functional; conditions: RPMI-8226, 48 h, read-out: GI
# A549 [22] = test: Cytotoxicity against human A549 cells assessed as growth inhibition at 10 uM after 48 hrs by SRB assay; assay type: functional; conditions: A549, 48 h, read-out: GI
# EKVX = test: Cytotoxicity against human EKVX cells assessed as growth inhibition at 10 uM after 48 hrs by SRB assay; assay type: functional; conditions: read-out: GI
# [23] = Cytotoxicity against human HCT15 cells assessed as growth inhibition at 10 uM after 48 hrs by SRB assay; assay type: functional; conditions: HCT-15, 48 h, read-out: GI
# [24] = Cytotoxicity against human SW620 cells assessed as growth inhibition at 10 uM after 48 hrs by SRB assay; assay type: functional; conditions: SW-620, 48 h, read-out: GI
# [25] = Cytotoxicity against human SF268 cells assessed as growth inhibition at 10 uM after 48 hrs by SRB assay; assay type: functional; conditions: SF-268, 48 h, read-out: GI
# U-251 [26] = test: Cytotoxicity against human U251 cells assessed as growth inhibition at 10 uM after 48 hrs by SRB assay; assay type: functional; conditions: U-251, 48 h, read-out: GI
# M14 [27] = test: Cytotoxicity against human M14 cells assessed as growth inhibition at 10 uM after 48 hrs by SRB assay; assay type: functional; conditions: M14, 48 h, read-out: GI
# MDA-MB-435 [28] = test: Cytotoxicity against human MDA-MB-435 cells assessed as growth inhibition at 10 uM after 48 hrs by SRB assay; assay type: functional; conditions: MDA-MB-435, 48 h, read-out: GI
# SK-MEL-28 = test: Cytotoxicity against human SK-MEL-28 cells assessed as growth inhibition at 10 uM after 48 hrs by SRB assay; assay type: functional; conditions: SK-MEL-28, 48 h, read-out: GI
# SK-MEL-5 [29] = test: Cytotoxicity against human SK-MEL-5 cells assessed as growth inhibition at 10 uM after 48 hrs by SRB assay; assay type: functional; conditions: SK-MEL-5, 48 h, read-out: GI
# [30] = Cytotoxicity against human UACC257 cells assessed as growth inhibition at 10 uM after 48 hrs by SRB assay; assay type: functional; conditions: UACC-257, 48 h, read-out: GI
# [31] = Cytotoxicity against human IGROV1 cells assessed as growth inhibition at 10 uM after 48 hrs by SRB assay; assay type: functional; conditions: IGROV-1, 48 h, read-out: GI
# [32] = Cytotoxicity against human NCI-ADR-RES cells assessed as growth inhibition at 10 uM after 48 hrs by SRB assay; assay type: functional; conditions: read-out: GI
# SN12C = test: Cytotoxicity against human SN12C cells assessed as growth inhibition at 10 uM after 48 hrs by SRB assay; assay type: functional; conditions: read-out: GI
# [33] = Cytotoxicity against human PC3 cells assessed as growth inhibition at 10 uM after 48 hrs by SRB assay; assay type: functional; conditions: PC-3, 48 h, read-out: GI
# MCF7 = test: Cytotoxicity against human MCF7 cells assessed as growth inhibition at 10 uM after 48 hrs by SRB assay; assay type: functional; conditions: MCF7, 48 h, read-out: GI
# MDA-MB-231 [34] = test: Cytotoxicity against human MDA-MB-231 cells assessed as growth inhibition at 10 uM after 48 hrs by SRB assay; assay type: functional; conditions: MDA-MB-231, 48 h, read-out: GI
# T47D = test: Cytotoxicity against human T47D cells assessed as growth inhibition at 10 uM after 48 hrs by SRB assay; assay type: functional; conditions: read-out: GI
# CCRF-CEM [35] = test: Cytotoxicity against human CCRF-CEM cells assessed as growth level at 10 uM after 48 hrs by SRB assay; assay type: functional
compound,measurement,setting,value
C=C1CC[C@@H]2[C@](C)(COC(C)=O)[C@H](OC(C)=O)CC[C@@]2(C)[C@@H]1CC(NCc1ccc(F)cc1)C1=CCOC1=O (mixture of isomers),Activity,[1],1.27%
same,Activity,A549 [2],57.9%
same,Activity,[3],18.82%
same,Activity,NCI-H226,40.13%
same,Activity,NCI-H522,20.93%
same,Activity,[4],42.15%
same,Activity,[5],37.04%
same,Activity,HT-29,21.32%
same,Activity,[6],62.59%
same,Activity,[7],64.45%
same,Activity,U-251 [8],48.01%
same,Activity,M14 [9],37.3%
same,Activity,MDA-MB-435 [10],32.73%
same,Activity,SK-MEL-5 [11],11.81%
same,Activity,[12],30.87%
same,Activity,[13],18.62%
same,Activity,[14],28.29%
same,Activity,786-0,86.82%
same,Activity,[15],80.59%
same,Activity,[16],66.64%
same,Activity,[17],69.82%
same,Activity,MDA-MB-231 [18],60.86%
same,Activity,[19],28.73%
same,inhibition of growth at 10 µM,CCRF-CEM [20],90.8%
same,inhibition of growth at 10 µM,K562,81.2%
same,inhibition of growth at 10 µM,[21],98.7%
same,inhibition of growth at 10 µM,A549 [22],42.1%
same,inhibition of growth at 10 µM,EKVX,50%
same,inhibition of growth at 10 µM,[23],63%
same,inhibition of growth at 10 µM,[24],68%
same,inhibition of growth at 10 µM,[25],37.4%
same,inhibition of growth at 10 µM,U-251 [26],52%
same,inhibition of growth at 10 µM,M14 [27],62.7%
same,inhibition of growth at 10 µM,MDA-MB-435 [28],67.3%
same,inhibition of growth at 10 µM,SK-MEL-28,22.2%
same,inhibition of growth at 10 µM,SK-MEL-5 [29],88.2%
same,inhibition of growth at 10 µM,[30],54.2%
same,inhibition of growth at 10 µM,[31],51.6%
same,inhibition of growth at 10 µM,[32],71.8%
same,inhibition of growth at 10 µM,SN12C,53.8%
same,inhibition of growth at 10 µM,[33],79.2%
same,inhibition of growth at 10 µM,MCF7,83.4%
same,inhibition of growth at 10 µM,MDA-MB-231 [34],39.1%
same,inhibition of growth at 10 µM,T47D,73.4%
same,Activity,CCRF-CEM [35],9.18%
C=C1CC[C@@H]2[C@](C)(COC(C)=O)[C@H](OC(C)=O)CC[C@@]2(C)[C@@H]1CC(NCCCCCCCC)C1=CCOC1=O (mixture of isomers),Activity,[1],35.98%
same,Activity,A549 [2],67.24%
same,Activity,[3],44.59%
same,Activity,NCI-H226,65.82%
same,Activity,NCI-H522,64.41%
same,Activity,[4],70.75%
same,Activity,[5],66.95%
same,Activity,HT-29,70.47%
same,Activity,[6],67.83%
same,Activity,[7],89.25%
same,Activity,U-251 [8],55.53%
same,Activity,M14 [9],75.91%
same,Activity,MDA-MB-435 [10],77.59%
same,Activity,SK-MEL-5 [11],50.57%
same,Activity,[12],52.34%
same,Activity,[13],70.96%
same,Activity,[14],87.68%
same,Activity,786-0,79.87%
same,Activity,[15],85.68%
same,Activity,[16],82.68%
same,Activity,[17],88.73%
same,Activity,MDA-MB-231 [18],70.83%
same,Activity,[19],69.6%
same,inhibition of growth at 10 µM,CCRF-CEM [20],52.7%
same,inhibition of growth at 10 µM,K562,65.3%
same,inhibition of growth at 10 µM,[21],64%
same,inhibition of growth at 10 µM,A549 [22],32.8%
same,inhibition of growth at 10 µM,EKVX,24.3%
same,inhibition of growth at 10 µM,[23],33%
same,inhibition of growth at 10 µM,[24],27.6%
same,inhibition of growth at 10 µM,[25],32.2%
same,inhibition of growth at 10 µM,U-251 [26],44.5%
same,inhibition of growth at 10 µM,M14 [27],24.1%
same,inhibition of growth at 10 µM,MDA-MB-435 [28],22.4%
same,inhibition of growth at 10 µM,SK-MEL-28,14.4%
same,inhibition of growth at 10 µM,SK-MEL-5 [29],49.4%
same,inhibition of growth at 10 µM,[30],38.9%
same,inhibition of growth at 10 µM,[31],29.8%
same,inhibition of growth at 10 µM,[32],12.3%
same,inhibition of growth at 10 µM,SN12C,26.9%
same,inhibition of growth at 10 µM,[33],66.4%
same,inhibition of growth at 10 µM,MCF7,31.2%
same,inhibition of growth at 10 µM,MDA-MB-231 [34],29.2%
same,inhibition of growth at 10 µM,T47D,42%
same,Activity,CCRF-CEM [35],47.26%
